# Results from patent publication US20080214556A1 (priority 2007, published 2008).
# Read-outs that look alike come from different tables or passages of the source.
# How the values were obtained:
# [1] = tested on: patients with non-ST elevation acute coronary syndrome; test: MERLIN-TIMI 36: efficacy endpoints (CV death, MI, recurrent ischemia, failure of therapy); type: in vivo, human
# Description: The MERLIN-TIMI 36 primary efficacy endpoint (ITT) time from randomization to first occurrence of cardiovascular death, myocardial infarction, or recurrent ischemia data is shown in Table 11 below (and FIGS. 4 and 5).
# The MERLIN-TIMI 36 major secondary efficacy endpoint (ITT) time from randomization to first occurrence of cardiovascular death, myocardial infarction, or severe recurrent ischemia data is shown in Table 12 below (and FIGS. 6 and 7).
# The secondary efficacy endpoint time from randomization to failure of therapy (cardiovascular death, […], recurrent ischemia, positive Holter for ischemia, New/Worsening heart failure, or early+ETT) data from MERLIN-TIMI 36 is shown in Table 14 below (and FIGS. 8 and 9).
# The secondary efficacy endpoint (ITT) incidence at 30 days of cardiovascular death, myocardial infarction, severe recurrent ischemia, or positive Holter for ischemia data from MERLIN-TIMI 36 is shown in Table 15 below.
# The data for time from randomization to first occurrence of cardiovascular death or myocardial infarction from MERLIN-TIMI 36 is shown in Table 20 below. For relative risk of CV death, MI, or recurrent ischemia by subgroup, see FIG. 10. For relative risk of CV death, MI, or severe recurrent ischemia by subgroup, see FIG. 11. For relative risks of failure of therapy by subgroup, see FIG. 12.
# [2] = tested on: patients with non-ST elevation acute coronary syndrome; test: MERLIN-TIMI 36: HbA1c and hyperglycemia; type: in vivo, human
# Description: The proportion of patients in the MERLIN-TIMI 36 study with HbA1C≧7% is shown in Table 28 below (and see FIG. 15).
# The proportion of patients with HbA1C≧7% (with diabetes or no diabetes) at various times during the MERLIN-TIMI 36 study is shown in Table 29 below (and FIG. 16).
# HbA1c data are reported as least-square means. Patients categorized as “diabetic” had been diagnosed as diabetic before or at the time of randomization. Patients categorized as “no diabetes” had not been diagnosed as diabetic before or at the time of randomization. Some patients characterized as “no diabetes” may have been diagnosed as “diabetic” during the trial; however, these patients are still listed in the “no diabetes” category in FIG. 4B.
# [3] = tested on: patients with non-ST elevation acute coronary syndrome; test: MERLIN-TIMI 36: arrhythmias on 7 day continuous ECG (Holter) recording; type: in vivo, human
# Procedure: The safety endpoint data for incidence of clinically significant arrhythmias during 7 day Holter monitoring from MERLIN-TIMI 36 is shown in Table 24 below.
# Continuous ECG (Holter) recording was performed for the first 7 days after randomization. Because of the known prolongation of the QT interval with ranolazine, analyses of a prespecified set of arrhythmias were a major objective of the trial. All arrhythmias were evaluated in the TIMI ECG Core Laboratory by cardiologists blinded to treatment and outcomes.
# Continuous ECG (cECG or Holter) recording was performed for the first 7 days after randomization. Prespecified arrhythmia analyses were evaluated by a core laboratory blinded to treatment and outcomes.
# [4] = tested on: patients with non-ST elevation acute coronary syndrome; test: MERLIN-TIMI 36: Seattle Angina Questionnaire scores at 4 months; type: in vivo, human; conditions: ITT, N 2558
# Description: The MERLIN-TIMI 36 secondary efficacy endpoint (ITT) Seattle Angina Questionnaire scores at 4 months for anginal frequency scale are shown in Table 16 below, and scores for physical limitation scale are shown in Table 17 below.
# [5] = tested on: patients with non-ST elevation acute coronary syndrome
# [6] = tested on: patients with non-ST elevation acute coronary syndrome; test: MERLIN-TIMI 36: ischemia on Holter / continuous ECG (CECG) monitoring; type: in vivo, human; conditions: ranolazine vs placebo
# Procedure: At randomization, 6355 patients (99%) had 3-lead CECG monitoring initiated (median duration 6.9 days). The primary CECG endpoint was the rate of ST dep≧1 mm from baseline lasting ≧1 minute with heart rate at onset <100 bpm. Exploratory analyses using ST dep≧0.5 mm were also performed.
# [7] = tested on: patients with non-ST elevation acute coronary syndrome; test: MERLIN-TIMI 36: adverse events; type: in vivo, human; conditions: n = 3268
# [8] = ITT, n = 3279, major secondary efficacy endpoint
# [9] = ITT, n = 3279, primary efficacy endpoint
# [10] = patients with DM treated with ranolazine
# [11] = placebo vs ranolazine, cECG monitoring
compound,measurement,setting,value
"COc1ccccc1OCC(O)CN1CCN(CC(=O)Nc2c(C)cccc2C)CC1 (racemic) [Ranolazine, (±)—N-(2,6-dimethylphenyl)-4-[2-hydroxy-3-(2-methoxyphenoxy)-propyl]-1-piperazineacetamide]",Incidence (Kaplan-Meier estimate) of CV death or MI,"[1]; 30 days, ITT",4.2%
same,"Incidence (Kaplan-Meier estimate) of CV death, MI, or recurrent ischemia","[1]; 30 days, ITT",7.7%
same,"Incidence (Kaplan-Meier estimate) of CV death, MI, or severe recurrent ischemia","[1]; 30 days, ITT",7.5%
same,Incidence (Kaplan-Meier estimate) of CV death or MI,"[1]; 60 days, ITT",5.3%
same,"Incidence (Kaplan-Meier estimate) of CV death, MI, or recurrent ischemia","[1]; 60 days, ITT",9.9%
same,"Incidence (Kaplan-Meier estimate) of CV death, MI, or severe recurrent ischemia","[1]; 60 days, ITT",9.4%
same,Endpoint-defining events: CV death (%),"[1]; ITT, n = 3279, CV death or MI endpoint",30.5%
same,Pts with events: first occurrence of CV death or MI,"[1]; ITT, n = 3279, additional efficacy endpoint",338
same,Endpoint-defining events: CV death (%),[1]; [8],14.6%
same,"Pts with events: first occurrence of CV death, MI, or severe recurrent ischemia",[1]; [8],602
same,Endpoint-defining events: CV death (%),[1]; [9],12.5%
same,"Pts with events: first occurrence of CV death, MI, or recurrent ischemia",[1]; [9],695
same,"Pts with events: CV death, MI, severe RI, or positive Holter for ischemia (%)","[1]; incidence at 30 days, ITT, n = 3279",23%
same,Primary endpoint occurred in (% of patients),"[1]; ranolazine group, Example 7",21.8%
same,HR for cardiovascular death or MI,[1]; ranolazine vs placebo,0.99
same,HR for recurrent ischemia,[1]; ranolazine vs placebo,0.87
same,HR for the primary endpoint,[1]; ranolazine vs placebo,0.92
same,"Relative risk (SE): CV death, MI, or severe recurrent ischemia","[1]; ranolazine vs placebo, ITT, major secondary efficacy endpoint",0.982 (0.06)
same,HR for worsening angina,"[1]; women, ranolazine vs placebo",0.61
same,Patients with HbA1C ≧ 7% (%),"[2]; Baseline (In-Hospital visit prior to randomization), all patients dosed",24%
same,Patients with HbA1C ≧ 7% (%),"[2]; Diabetes at enrollment, n = 1098, Baseline",57%
same,Patients with HbA1C ≧ 7% (%),"[2]; Diabetes at enrollment, n = 1098, Final Visit",42%
same,Patients with HbA1C ≧ 7% (%),"[2]; Diabetes at enrollment, n = 1098, Month 4",41%
same,Patients with HbA1C ≧ 7% (%),"[2]; Diabetes at enrollment, n = 1098, Month 8",44%
same,Patients with HbA1C ≧ 7% (%),"[2]; Diabetes at enrollment, n = 1098, Month 16",48%
same,Patients with HbA1C ≧ 7% (%),"[2]; Final Visit, all patients dosed",17%
same,Patients with HbA1C ≧ 7% (%),"[2]; Month 4, all patients dosed",17%
same,Patients with HbA1C ≧ 7% (%),"[2]; Month 8, all patients dosed",18%
same,Patients with HbA1C ≧ 7% (%),"[2]; Month 16, all patients dosed",20%
same,Patients with HbA1C ≧ 7% (%),"[2]; No Diabetes at enrollment, n = 2170, Baseline",6%
same,Patients with HbA1C ≧ 7% (%),"[2]; No Diabetes at enrollment, n = 2170, Final Visit",6%
same,Patients with HbA1C ≧ 7% (%),"[2]; No Diabetes at enrollment, n = 2170, Month 4",5%
same,Patients with HbA1C ≧ 7% (%),"[2]; No Diabetes at enrollment, n = 2170, Month 8",6%
same,Patients with HbA1C ≧ 7% (%),"[2]; No Diabetes at enrollment, n = 2170, Month 16",7%
same,HbA1c,"[2]; at 4 months, 4306 patients with serial measurements, least-square means",5.9%
same,HR for worsening of hyperglycemia,"[2]; diabetic patients, ranolazine vs placebo",0.63
same,HbA1c after decline (declined to),[2]; [10],6.8
same,HbA1c before decline (declined from),[2]; [10],7.2
same,Patients achieving HbA1c<7%,"[2]; patients with DM, at 4 months",59%
same,HR for new fasting glucose >110 mg/dL or HbA1c≧6%,"[2]; patients without DM, ranolazine vs placebo",0.68
same,Any Clinically Significant Arrhythmia during 7 Day Holter (%),"[3]; All Patients Dosed, n = 3268",71.3%
same,Bradycardic episode during 7 Day Holter (%),"[3]; All Patients Dosed, n = 3268",38.5%
same,New onset atrial fibrillation during 7 Day Holter (%),"[3]; All Patients Dosed, n = 3268",1.7%
same,Supraventricular tachycardia during 7 Day Holter (%),"[3]; Any SVT >= 120 bpm, n = 3268",43.2%
same,Ventricular tachycardia during 7 Day Holter (%),"[3]; Any VT >= 100 bpm >= 3 beats, n = 3268",29.0%
same,Pause > 3 secs (%),"[3]; Holter, first 7 days, n = 3162",(3.1) %
same,VT >= 8 beats (<30 secs) (%),"[3]; Holter, first 7 days, n = 3162",(5.5) %
same,New-onset atrial fibrillation (% of patients),"[3]; cECG first 7 days, Example 9",1.7%
same,Polymorphic VT >= 8 beats (%),[3]; cECG monitoring,(1.2) %
same,Sustained VT (>=30 sec) (%),[3]; cECG monitoring,(0.44) %
same,VT ≧ 8 beats (<30 sec) (%),[3]; cECG monitoring,(5.3) %
same,VT ≧ 8 beats (<30 sec) (%),"[3]; cECG monitoring, listed as ranolazine",5.3%
same,Polymorphic VT >= 8 beats: Δ (%),[3]; [11],−21%
same,Sustained VT (>=30 sec): Δ,[3]; [11],0
same,VT ≧ 3 beats (≧100 b/m): Δ (%),[3]; [11],−17%
same,VT ≧ 4 beats (≧100 b/m): Δ (%),[3]; [11],−30%
same,VT ≧ 8 beats (<30 sec): Δ (%),[3]; [11],−37%
same,"Seattle Angina Questionnaire, Anginal Frequency Scale: Median",[4],100
same,Incidence (Kaplan-Meier estimate) of death from any cause,[5]; 30 days,1.8%
same,Incidence (Kaplan-Meier estimate) of death or CV hospitalization,[5]; 30 days,9.2%
same,Incidence (Kaplan-Meier estimate) of death from any cause,[5]; 60 days,2.2%
same,Incidence (Kaplan-Meier estimate) of death or CV hospitalization,[5]; 60 days,15.0%
same,Incidence (Kaplan-Meier estimate) of death from any cause,[5]; 180 days,3.4%
same,Incidence (Kaplan-Meier estimate) of death from any cause,[5]; 360 days,5.3%
same,Incidence (Kaplan-Meier estimate) of death from any cause,[5]; 540 days,7.0%
same,Pts with events: death from any cause,"[5]; All Patients Dosed, n = 3268",172
same,Pts with events: first occurrence of death or CV hospitalization,"[5]; All Patients Dosed, n = 3268",1037
same,Endpoint-defining events: Death (%),"[5]; death or CV hospitalization endpoint, n = 3268",10.7%
same,Endpoint-defining events: CV hospitalization (%),"[5]; human, in vivo",89.3%
same,Symptomatic documented arrhythmias (% of patients),"[5]; human, in vivo",3.0%
same,HR for total mortality,[5]; ranolazine vs placebo,0.99
same,RR for primary CECG endpoint events,[6]; >72 hours after randomization,0.86
same,RR for CECG ischemic events,[6]; lower ischemic threshold of 0.5 mm,0.91
same,Adverse event: Angina pectoris (%),[7]; AE summary > 4% incidence,(8%)
same,Adverse event: Angina unstable (%),[7]; AE summary > 4% incidence,(10%)
same,Adverse event: Asthenia (%),[7]; AE summary > 4% incidence,(5%)
same,Adverse event: Cardiac failure (%),[7]; AE summary > 4% incidence,(5%)
same,Adverse event: Chest pain (%),[7]; AE summary > 4% incidence,(11%)
same,Adverse event: Constipation (%),[7]; AE summary > 4% incidence,(9%)
same,Adverse event: Dizziness (%),[7]; AE summary > 4% incidence,(13%)
same,Adverse event: Fatigue (%),[7]; AE summary > 4% incidence,(4%)
same,Adverse event: Headache (%),[7]; AE summary > 4% incidence,(7%)
same,Adverse event: Hypotension (%),[7]; AE summary > 4% incidence,(5%)
same,Adverse event: Nausea (%),[7]; AE summary > 4% incidence,(9%)
same,Serious adverse event: ACS (%),[7]; SAEs ≧ 1% incidence,(2%)
same,Serious adverse event: Acute MI (%),[7]; SAEs ≧ 1% incidence,(3%)
same,Serious adverse event: Angina pectoris (%),[7]; SAEs ≧ 1% incidence,(4%)
same,Serious adverse event: Angina unstable (%),[7]; SAEs ≧ 1% incidence,(8%)
same,Serious adverse event: Atrial fibrillation (%),[7]; SAEs ≧ 1% incidence,(1%)
same,Serious adverse event: Cardiac failure (%),[7]; SAEs ≧ 1% incidence,(4%)
same,Serious adverse event: Cardiac failure congestive (%),[7]; SAEs ≧ 1% incidence,(1%)
same,Serious adverse event: Chest pain (%),[7]; SAEs ≧ 1% incidence,(2%)
same,Serious adverse event: MI (%),[7]; SAEs ≧ 1% incidence,(4%)
same,Serious adverse event: Syncope (%),[7]; SAEs ≧ 1% incidence,(1%)
same,Patients early prematurely withdrawn due to AEs (%),[7]; Safety - All Patients Dosed,(13%)
same,Patients with AEs (%),[7]; Safety - All Patients Dosed,(76%)
same,Patients with AEs leading to death (%),[7]; Safety - All Patients Dosed,(5%)
same,Patients with serious AEs (SAEs) (%),[7]; Safety - All Patients Dosed,(34%)
same,Patients with study drug-related AEs (%),[7]; Safety - All Patients Dosed,(30%)
